Data as given in US9149038B2, “4-amino-6-(heterocyclic)picolinates and 6-amino-2-(heterocyclic)pyrimidine-4-carboxylates and their use as herbicides” (Dow AgroSciences LLC, priority 2013, dated 2015).
Read-outs that look alike come from different tables or passages of the source.

Columns and labels:
[1] = test system: Key Grass and Sedge Weeds as well as Grass Crops; experiment: Post-Emergent Test II: postemergent herbicidal activity, visual rating after 14 d (Table 8); type: in vivo; details: post-emergence, 336 h; for pest or weed control at 70 g/ha: 70 g ai/ha; for pest or weed control at 140 g/ha: 140 g ai/ha; for pest or weed control at 35 g/ha: 35 g ai/ha
Outline: (§1)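 Greenhouse-grown plants at the first or second true leaf stage (7-21 d, ~15 h photoperiod, 23-29° C day) were sprayed with compound in acetone/DMSO-based aqueous spray containing crop oil concentrate and Triton X-155 at 187 L/ha. Injury versus untreated plants was rated visually after 14 d on a 0-100 scale.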

[2] = test system: Key Broadleaf Weed and Crop Species; experiment: Post-Emergent Test II: postemergent herbicidal activity, visual rating after 14 d (Table 7); type: in vivo; details: post-emergence, 336 h; for pest or weed control at 35 g/ha: 35 g ai/ha; for pest or weed control at 70 g/ha: 70 g ai/ha; for pest or weed control at 140 g/ha: 140 g ai/ha
Outline: as §1

[3] = barnyardgrass (Echinochloa crus-galli), read-out: Visual Growth Reduction (%) 14 Days After Application ECHCG
[4] = giant foxtail (Setaria faberi), read-out: Visual Growth Reduction (%) 14 Days After Application SETFA
[5] = maize, corn (Zea mays), read-out: Visual Growth Reduction (%) 14 Days After Application ZEAMX
[6] = rice (Oryza sativa), read-out: Visual Growth Reduction (%) 14 Days After Application ORYSA
[7] = wheat, spring (Triticum aestivum), read-out: Visual Growth Reduction (%) 14 Days After Application TRZAS
[8] = yellow nutsedge (Cyperus esculentus), read-out: Visual Growth Reduction (%) 14 Days After Application CYPES
[9] = lambsquarters (Chenopodium album), read-out: Visual Growth Reduction (%) 14 Days After Application CHEAL
[10] = oilseed rape, canola (Brassica napus), read-out: Visual Growth Reduction (%) 14 Days After Application BRSNN
[11] = redroot pigweed (Amaranthus retroflexus), read-out: Visual Growth Reduction (%) 14 Days After Application AMARE
[12] = sunflower (Helianthus annuus), read-out: Visual Growth Reduction (%) 14 Days After Application HELAN
[13] = velvetleaf (Abutilon theophrasti), read-out: Visual Growth Reduction (%) 14 Days After Application ABUTH
[14] = wild poinsettia (Euphorbia heterophylla), read-out: Visual Growth Reduction (%) 14 Days After Application EPHHL

COc1c(N)nc(-c2ccc3c(c2)OC(F)(F)O3)nc1C(=O)O [Compound 63]
pest or weed control at 70 g/ha [1, 3]: 95 to 100%
pest or weed control at 140 g/ha [1, 3]: 95 to 100%
pest or weed control at 35 g/ha [1, 4]: 75 to 84%
pest or weed control at 70 g/ha [1, 4]: 95 to 100%
pest or weed control at 140 g/ha [1, 4]: 95 to 100%
pest or weed control at 35 g/ha [1, 5]: 95 to 100%
pest or weed control at 70 g/ha [1, 5]: 95 to 100%
pest or weed control at 140 g/ha [1, 5]: 95 to 100%
pest or weed control at 35 g/ha [1, 6]: 0 to 29%
pest or weed control at 70 g/ha [1, 6]: 0 to 29%
pest or weed control at 140 g/ha [1, 6]: 0 to 29%
pest or weed control at 35 g/ha [1, 7]: 45 to 59%
pest or weed control at 70 g/ha [1, 7]: 45 to 59%
pest or weed control at 140 g/ha [1, 7]: 45 to 59%
pest or weed control at 35 g/ha [1, 8]: 95 to 100%
pest or weed control at 70 g/ha [1, 8]: 95 to 100%
pest or weed control at 140 g/ha [1, 8]: 95 to 100%
pest or weed control at 35 g/ha [2, 9]: 0 to 29%
pest or weed control at 70 g/ha [2, 9]: 0 to 29%
pest or weed control at 140 g/ha [2, 9]: 0 to 29%
pest or weed control at 35 g/ha [2, 10]: 60 to 74%
pest or weed control at 70 g/ha [2, 10]: 75 to 84%
pest or weed control at 140 g/ha [2, 10]: 75 to 84%
pest or weed control at 35 g/ha [2, 11]: 0 to 29%
pest or weed control at 70 g/ha [2, 11]: 30 to 44%
pest or weed control at 140 g/ha [2, 11]: 60 to 74%
pest or weed control at 35 g/ha [2, 12]: 85 to 94%
pest or weed control at 70 g/ha [2, 12]: 85 to 94%
pest or weed control at 140 g/ha [2, 12]: 85 to 94%
pest or weed control at 35 g/ha [2, 13]: 85 to 94%
pest or weed control at 70 g/ha [2, 13]: 60 to 74%
pest or weed control at 140 g/ha [2, 13]: 85 to 94%
pest or weed control at 35 g/ha [2, 14]: 95 to 100%
pest or weed control at 70 g/ha [2, 14]: 95 to 100%
pest or weed control at 140 g/ha [2, 14]: 95 to 100%
